The values below are quoted from earlier work in patent US20150141462A1, “PHARMACEUTICAL COMPOSITIONS AND METHODS FOR TREATING DRUG ADDICTION AND PREVENTING A DRUG RELAPSE” (priority 2012, published 2015).

For data set [1], the system named is rats.
Experiment in data set [2]: not given
This is another data set of the same source.

The subject of data set [3] is animal models of addiction. To be noted: mGluR5 antagonists.

Molecules are shown by their SMILES.

As to `N#Cc1cccc(C(=O)Nc2cc(-c3ccccc3)nn2-c2ccccc2)c1` [CDPPB, 3-cyano-N-(1,3-diphenyl-1H-pyrazol-5-yl)benzamide], the cocaine-seeking behavior result (following intravenous self-administration) is “reduces cocaine-seeking behavior”. The “reacquisition of cocaine self-administration” value (in vivo) is listed as “deters the reacquisition”. For the same compound, the “extinction of cocaine-induced conditioned place preference” value in data set [1] is “enhances extinction”. Further, the reinstatement result in data set [2] (following methamphetamine self-administration) is recorded as “reduced reinstatement slightly”. For the same compound, in data set [2] (in vivo), the “extinction following methamphetamine self-administration” value is “improved extinction”.
For the compound `Cc1cccc(C#Cc2ccccc2)n1.Cl` [MPEP, 2-methyl-6-(phenylethynyl)pyridine hydrochloride], the “self-administration of drugs of abuse” value in data set [3] is “reduce self-administration of virtually all drugs of abuse”.
With `Cc1nc(C#Cc2cccnc2)cs1` [MTEP, 3-((2-methyl-4-thiazolyl)ethynyl)pyridine], the “self-administration of drugs of abuse” value in data set [3] is reported as “reduce self-administration of virtually all drugs of abuse”.
